Laboratory results reported in patent US9296748B2, “Pyridinones” (Boehringer Ingelheim International GmbH, priority 2013, dated 2016).

Biological target: BRD4-BD1 (Homo sapiens (Human), UniProt O60885)
Test: BRD4-H4 Tetraacetylated Peptide Inhibition AlphaScreen
Format: binding
Details: GST-BRD4-BD1 (aa 44-168), biotinylated Acetyl-Histone H4 peptide
Description: Compounds are diluted in serial dilution 1:5 in assay buffer from 10 mM stock in DMSO (100 μM start concentration) in white OptiPlate-384 (PerkinElmer). […] Subsequently, 6 μl of premixed AlphaLISA Glutathione Acceptor Beads and AlphaScreen Streptavidin Donor Beads from PerkinElmer (in assay buffer at a concentration of 10 μg/ml each) are added and the samples are incubated for 30 min at RT in the dark (shaking 300 rpm). Afterwards, the signal is measured in a PerkinElmer Envision HTS Multilabel Reader using the AlphaScreen protocol from PerkinElmer. […] Negative control values are entered as low basis value when using the software GraphPad Prism for calculations. Furthermore, a positive control (probe molecule JQ1+ with protein/peptide mix) is pipetted. Determination of IC50 values are carried out using GraphPad Prism 3.03 software (or updates thereof).

Structure (SMILES): Cc1cc(-c2nc3cnc(OCC4CC4)cc3n2C(C)c2ccccn2)cn(C)c1=O (racemic) [II-21, 5-[6-Cyclopropylmethoxy-1-(1-pyridin-2-yl-ethyl)-1H-imidazo[4,5-c]pyridin-2-yl]-1,3-dimethyl-1H-pyridin-2-one]
- IC50: 42 nM

Structure (SMILES): Cc1cc(-c2nc3ccc(N4CCN(C)CC4)cc3n2Cc2ccccc2)cn(C)c1=O [Example I-1, 5-[1-Benzyl-6-(4-methylpiperazin-1-yl)-1H-1,3-benzodiazol-2-yl]-1,3-dimethyl-1,2-dihydropyridin-2-one]
- IC50: 12 nM

Structure (SMILES): Cn1cc(-c2nc3ccccc3n2Cc2ccccc2)ccc1=O [Example I-2]
- IC50: 1540 nM

Structure (SMILES): Cc1cc(-c2nc3ccc(N4CCOCC4)cc3n2Cc2ccccc2)c[nH]c1=O [Example I-3]
- IC50: 109 nM

Structure (SMILES): Cn1cc(-c2nc3ccc(N4CCOCC4)cc3n2Cc2ccccc2)ccc1=O [Example I-4]
- IC50: 515 nM

Structure (SMILES): CN1CCN(c2ccc3nc(-c4ccc(=O)n(C)c4)n(Cc4ccccc4)c3c2)CC1 [Example I-5]
- IC50: 547 nM

Structure (SMILES): Cc1cc(-c2nc3ccc(N4CCOCC4)cc3n2Cc2ccccc2)cn(C)c1=O [Example I-6]
- IC50: 19 nM

Structure (SMILES): Cc1cc(-c2nc3ccc(N4CCN(C)CC4)cc3n2Cc2ccccc2)c[nH]c1=O [Example I-7]
- IC50: 95 nM

Structure (SMILES): Cc1cc(-c2nc3ccccc3n2Cc2ccccc2)c[nH]c1=O [Example I-8]
- IC50: 609 nM

Structure (SMILES): Cc1cc(-c2nc3ccc(N)cc3n2Cc2ccccc2)cn(C)c1=O [Example I-9, 5-(6-Amino-1-benzyl-1H-benzoimidazol-2-yl)-1,3-dimethyl-1H-pyridin-2-one]
- IC50: 58 nM

Structure (SMILES): CCn1cc(-c2nc3ccc(N4CCN(C)CC4)cc3n2Cc2ccccc2)cc(C)c1=O [Example I-10]
- IC50: 49 nM

Structure (SMILES): Cc1cc(-c2nc3ccc(N4CCN(C)CC4)cc3n2Cc2ccccc2)nn(C)c1=O [Example I-11]
- IC50: 12 nM

Structure (SMILES): Cc1cc(-c2nc3ccc(F)cc3n2Cc2ccccc2)cn(C)c1=O [Example I-12, 5-(1-Benzyl-6-fluoro-1H-benzoimidazol-2-yl)-1,3-dimethyl-1H-pyridin-2-one]
- IC50: 18 nM

Structure (SMILES): Cc1cc(-c2nc3ccccc3n2Cc2ccccc2)cn(C)c1=O [Example I-13]
- IC50: 68 nM

Structure (SMILES): Cc1nc(-c2nc3ccc(N4CCN(C)CC4)cc3n2Cc2ccccc2)cn(C)c1=O [Example I-14]
- IC50: 36 nM

Structure (SMILES): Cn1nc(-c2nc3ccccc3n2Cc2ccccc2)ccc1=O [Example I-15]
- IC50: 1380 nM

Structure (SMILES): CN1CCN(c2ccc3nc(-c4ccc(=O)n(C)n4)n(Cc4ccccc4)c3c2)CC1 [Example I-16]
- IC50: 192 nM

Structure (SMILES): Cn1cc(-c2nc3ccccc3n2Cc2ccccc2)ncc1=O [Example I-18]
- IC50: 1110 nM

Structure (SMILES): Cn1cc(-c2nc3ccc(N4CCOCC4)cc3n2Cc2ccccc2)ncc1=O [Example I-19]
- IC50: 298 nM

Structure (SMILES): CN1CCN(c2ccc3nc(-c4cn(C)c(=O)cn4)n(Cc4ccccc4)c3c2)CC1 [Example I-20]
- IC50: 121 nM

Structure (SMILES): Cc1nc(-c2nc3ccccc3n2Cc2ccccc2)cn(C)c1=O [Example I-21]
- IC50: 201 nM

Structure (SMILES): COc1ccc2nc(-c3cc(C)c(=O)n(C)c3)n(Cc3ccccc3)c2c1 [Example I-22]
- IC50: 44 nM

Structure (SMILES): Cc1cc(-c2nc3ccc(C#N)cc3n2Cc2ccccc2)cn(C)c1=O [Example I-23]
- IC50: 190 nM

Structure (SMILES): Cc1cc(-c2nc3ccc(C(=O)N(C)C)cc3n2Cc2ccccc2)cn(C)c1=O [Example I-24]
- IC50: 128 nM

Structure (SMILES): Cc1cc(-c2nc3ccc(C4CCOCC4)cc3n2Cc2ccccn2)cn(C)c1=O [Example I-25]
- IC50: 72 nM

Structure (SMILES): COC[C@H](C)n1c(-c2cc(C)c(=O)n(C)c2)nc2ccc(C3CCOCC3)cc21 [Example I-26]
- IC50: 96 nM

Structure (SMILES): Cc1cc(-c2nc3ccc(C4CCOCC4)cc3n2[C@@H](C)c2ccccn2)cn(C)c1=O [Example I-27]
- IC50: 103 nM

Structure (SMILES): COC[C@H](C)n1c(-c2cc(C)c(=O)n(C)c2)nc2ccc(C(C)C)cc21 [Example I-28]
- IC50: 174 nM

Structure (SMILES): Cc1cc(-c2nc3ccc(C(C)C)cc3n2[C@@H](C)c2ccccn2)cn(C)c1=O [Example I-29]
- IC50: 180 nM

Structure (SMILES): Cc1cc(-c2nc3ccc(C4(C(F)(F)F)CC4)cc3n2Cc2ccccn2)cn(C)c1=O [Example I-30]
- IC50: 63 nM

Structure (SMILES): COC[C@H](C)n1c(-c2cc(C)c(=O)n(C)c2)nc2ccc(N3CCOC[C@@H]3C)cc21 [Example I-31]
- IC50: 75 nM

Structure (SMILES): COC[C@H](C)n1c(-c2cc(C)c(=O)n(C)c2)nc2ccc(N)cc21 [Example I-32]
- IC50: 268 nM

Structure (SMILES): Cc1cc(-c2nc3ccc(C4CN(C)CCO4)cc3n2[C@@H](C)c2ccccc2)nn(C)c1=O (stereo partly shown) [Example I-33]
- IC50: 47 nM

Structure (SMILES): Cc1cc(-c2nc3ccc(C4CN(C)CCO4)cc3n2[C@@H](C)c2ccccc2)cn(C)c1=O (stereo partly shown) [Example I-34]
- IC50: 49 nM

Structure (SMILES): Cc1cc(-c2nc3ccc(C4CCN(C)C(=O)C4)cc3n2[C@@H](C)c2ccccc2)cn(C)c1=O (stereo partly shown) [Example I-35]
- IC50: 23 nM

Structure (SMILES): COC[C@H](C)n1c(-c2cc(C)c(=O)n(C)n2)nc2ccc(N3CCOC[C@@H]3C)cc21 [Example I-36]
- IC50: 65 nM

Structure (SMILES): Cc1cc(-c2nc3ccc(C4(C(F)(F)F)CC4)cc3n2[C@@H](C)c2ccccc2)cn(C)c1=O [Example I-37]
- IC50: 103 nM

Structure (SMILES): Cc1cc(-c2nc3ccc(C4CCN(C)C(=O)C4)cc3n2[C@@H](C)c2ccccc2)nn(C)c1=O (stereo partly shown) [Example I-38]
- IC50: 32 nM

Structure (SMILES): CC1CC(=O)NN=C1c1ccc2c(c1)nc(-c1cc(N)c(=O)n(C)c1)n2Cc1ccccc1 (stereo not shown) [Example V-1, 6-[2-(5-Amino-1-methyl-6-oxo-1,6-dihydro-pyridin-3-yl)-1-benzyl-1H-benzoimidazol-5-yl]-5-methyl-4,5-dihydro-2H-pyridazin-3-one]
- IC50: 145 nM

Structure (SMILES): Cn1cc(-c2nc3ccccc3n2Cc2ccccc2)cc(N)c1=O [Example V-2, 3-amino-5-(1-benzyl-1H-benzoimidazol-2-yl)-1-methyl-1H-pyridin-2-one]
- IC50: 1350 nM

Structure (SMILES): CN1CCN(c2ccc3nc(-c4cc(N)c(=O)n(C)c4)n(Cc4ccccc4)c3c2)CC1 [Example V-3]
- IC50: 73 nM

Structure (SMILES): Cn1cc(-c2nc3ccc(N4CCOCC4)cc3n2Cc2ccccc2)cc(N)c1=O [Example V-4]
- IC50: 133 nM

Structure (SMILES): Cc1cc(-c2nc3cnc(N4CCN(C)CC4)cc3n2Cc2ccccc2)cn(C)c1=O [II-1]
- IC50: 19 nM

Structure (SMILES): Cc1cc(-c2nc3cnc(N4CCOCC4)cc3n2Cc2ccccn2)cn(C)c1=O [II-2]
- IC50: 54 nM

Structure (SMILES): Cc1cc(-c2nc3cnc(N4CCOCC4)cc3n2Cc2ccccc2)cn(C)c1=O [II-3, 5-(1-Benzyl-6-morpholin-4-yl-1H-imidazo[4,5-c]pyridin-2-yl)-1,3-dimethyl-1H-pyridin-2-one]
- IC50: 18 nM

Structure (SMILES): CCn1cc(-c2nc3cnc(N4CCN(C)CC4)cc3n2Cc2ccccc2)cc(C)c1=O [II-4]
- IC50: 55 nM

Structure (SMILES): Cc1cc(-c2nc3cnc(N4CCN(C)CC4)cc3n2Cc2ccccc2)nn(C)c1=O [II-5]
- IC50: 12 nM

Structure (SMILES): CCn1cc(-c2nc3cnc(N4CCOCC4)cc3n2Cc2ccccc2)cc(C)c1=O [II-6]
- IC50: 163 nM

Structure (SMILES): Cc1cc(-c2nc3cnc(Cl)cc3n2Cc2ccccc2)cn(C)c1=O [II-7, 5-(1-Benzyl-6-chloro-1H-imidazo[4,5-c]pyridin-2-yl)-1,3-dimethyl-1H-pyridin-2-one]
- IC50: 175 nM

Structure (SMILES): Cc1cc(-c2nc3cnccc3n2Cc2ccccc2)cn(C)c1=O [II-8]
- IC50: 148 nM

Structure (SMILES): Cc1cc(-c2nc3cnc(N(C)C)cc3n2Cc2ccccc2)cn(C)c1=O [II-9]
- IC50: 30 nM

Structure (SMILES): Cc1nc(-c2nc3cnc(N4CCN(C)CC4)cc3n2Cc2ccccc2)cn(C)c1=O [II-10]
- IC50: 45 nM

Structure (SMILES): COC[C@H](C)n1c(-c2cc(C)c(=O)n(C)c2)nc2cnc(N3CCOC[C@@H]3C)cc21 [II-11]
- IC50: 102 nM

Structure (SMILES): Cc1nc(-c2nc3cnc(N4CCOCC4)cc3n2Cc2ccccc2)cn(C)c1=O [II-12]
- IC50: 49 nM

Structure (SMILES): Cc1cc(-c2nc3cnc(-n4ccnc4)cc3n2Cc2ccccc2)cn(C)c1=O [II-13, 5-(1-Benzyl-6-imidazol-1-yl-1H-imidazo[4,5-c]pyridin-2-yl)-1,3-dimethyl-1H-pyridin-2-one]
- IC50: 102 nM

Structure (SMILES): Cc1cc(-c2nc3cnc(N4CCOCC4)cc3n2Cc2ccncc2)cn(C)c1=O [II-14]
- IC50: 63 nM

Structure (SMILES): Cc1cc(-c2nc3cnc(N4CCOC[C@@H]4C)cc3n2Cc2ccccc2)cn(C)c1=O [II-15]
- IC50: 42 nM

Structure (SMILES): Cc1cc(-c2nc3cnc(N)cc3n2Cc2ccccc2)cn(C)c1=O [II-16, 5-(6-Amino-1-benzyl-1H-imidazo[4,5-c]pyridin-2-yl)-1,3-dimethyl-1H-pyridin-2-one]
- IC50: 68 nM

Structure (SMILES): Cc1cc(-c2nc3cnc(N4CCOC[C@@H]4C)cc3n2Cc2ccccn2)cn(C)c1=O [II-17]
- IC50: 160 nM

Structure (SMILES): Cc1cc(-c2nc3cnc(N4CCOCC4)cc3n2[C@H](C)c2ccccc2)cn(C)c1=O [II-18]
- IC50: 233 nM

Structure (SMILES): Cc1cc(-c2nc3cnc(N4CCOCC4)cc3n2[C@@H](C)c2ccccc2)cn(C)c1=O [II-19]
- IC50: 27 nM

Structure (SMILES): Cc1cc(-c2nc3cnc(N4CCOCC4)cc3n2Cc2cccnc2)cn(C)c1=O [II-20]
- IC50: 33 nM

Structure (SMILES): Cc1cc(-c2nc3cnc(N4CCN(C)CC4)cc3n2C(C)c2ccccn2)cn(C)c1=O (stereo not shown) [II-22]
- IC50: 34 nM

Structure (SMILES): Cc1cc(-c2nc3cnccc3n2Cc2ccc(Cl)cc2)cn(C)c1=O [II-23]
- IC50: 33 nM

Structure (SMILES): Cc1cc(-c2nc3cnc(C(C)C)cc3n2[C@@H](C)c2ccccc2)cn(C)c1=O [II-24]
- IC50: 38 nM

Structure (SMILES): Cc1cc(-c2nc3cnc(C4CCOCC4)cc3n2[C@@H](C)c2ccccc2)nn(C)c1=O [II-25]
- IC50: 8 nM

Structure (SMILES): Cc1cc(-c2nc3cnc(C4CCOCC4)cc3n2[C@@H](C)c2ccccc2)cn(C)c1=O [II-26]
- IC50: 16 nM

Structure (SMILES): Cc1cc(-c2nc3cnccc3n2Cc2ccc(F)c(F)c2)cn(C)c1=O [II-27]
- IC50: 166 nM

Structure (SMILES): Cc1cc(-c2nc3cnccc3n2Cc2ccccc2F)cn(C)c1=O [II-28]
- IC50: 128 nM

Structure (SMILES): Cc1cc(-c2nc3cnc(N4CCOC[C@@H]4C)cc3n2[C@@H](C)c2ccccn2)cn(C)c1=O [II-29]
- IC50: 130 nM
